Experimental data published in PubChem BioAssay (NCI).
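Test compounds were applied to cells in 96-well plates for 48 hours at 5 doses. TGI: total growth inhibition.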

Tests used:
Assay in all cases: growth of human tumour cells (NCI), 48 h
[1] = system: 786-0 renal
[2] = system: A498 renal
[3] = system: A549 NSCLC
[4] = system: ACHN renal
[5] = system: BT-549 breast
[6] = system: CAKI-1 renal
[7] = system: DU-145 prostate
[8] = system: EKVX NSCLC
[9] = system: HCT-116 colon
[10] = system: HCT-15 colon
[11] = system: HL-60(TB) leukemia
[12] = system: HOP-62 NSCLC
[13] = system: HOP-92 NSCLC
[14] = system: HS 578T breast
[15] = system: HT29 colon
[16] = system: IGROV1 ovarian
[17] = system: K-562 leukemia
[18] = system: KM12 colon
[19] = system: LOX IMVI melanoma
[20] = system: M14 melanoma
[21] = system: MCF7 breast
[22] = system: MDA-MB-231 breast
[23] = system: MDA-MB-435
[24] = system: MDA-N
[25] = system: MOLT-4 leukemia
[26] = system: NCI-H226 lung
[27] = system: NCI-H23 lung
[28] = system: NCI-H460 lung
[29] = system: NCI-H522 lung
[30] = system: NCI/ADR-RES ovarian
[31] = system: OVCAR-3 ovarian
[32] = system: OVCAR-4 ovarian
[33] = system: OVCAR-5 ovarian
[34] = system: OVCAR-8 ovarian
[35] = system: PC-3 prostate
[36] = system: RPMI-8226 leukemia
[37] = system: RXF 393 renal
[38] = system: SF-268 CNS
[39] = system: SF-295 CNS
[40] = system: SF-539 CNS
[41] = system: SK-MEL-2 melanoma
[42] = system: SK-MEL-28 melanoma
[43] = system: SK-MEL-5 melanoma
[44] = system: SNB-75 CNS
[45] = system: SR leukemia
[46] = system: SW-620 colon
[47] = system: T-47D breast
[48] = system: TK-10 renal
[49] = system: U251 CNS
[50] = system: UACC-257 melanoma
[51] = system: UO-31 renal

With Cc1n[nH]c(=S)n1/N=C/c1ccc(-c2ccc(Cl)cc2)o1 the TGI [1] was > 100 µM, the TGI [2] was > 100 µM and the TGI [3] was > 100 µM. For the same compound, the TGI [4] was > 100 µM, the TGI [5] was > 100 µM and the TGI [6] was > 100 µM. The TGI [7] was > 100 µM, the TGI [8] was > 100 µM and the TGI [9] was > 100 µM. For the same compound, the TGI [10] was > 100 µM, the TGI [11] was > 100 µM and the TGI [12] was > 100 µM. The TGI [13] was > 100 µM, the TGI [14] was > 100 µM and the TGI [15] was > 100 µM. For the same compound, the TGI [16] was > 100 µM, the TGI [17] was > 100 µM and the TGI [18] was > 100 µM. For the same compound, the TGI [19] was > 100 µM, the TGI [20] was > 100 µM and the TGI [21] was > 100 µM. For the same compound, the TGI [22] was > 100 µM, the TGI [23] was > 100 µM and the TGI [24] was > 100 µM. The TGI [25] was > 100 µM, the TGI [26] was > 100 µM and the TGI [27] was > 100 µM. The TGI [28] was > 100 µM, the TGI [29] was > 100 µM and the TGI [30] was > 100 µM. The TGI [31] was > 100 µM, the TGI [32] was > 100 µM and the TGI [33] was > 100 µM. For the same compound, the TGI [34] was > 100 µM, the TGI [35] was > 100 µM and the TGI [36] was > 100 µM. The TGI [37] was > 100 µM, the TGI [38] was > 100 µM and the TGI [39] was > 100 µM. The TGI [40] was > 100 µM, the TGI [41] was > 100 µM and the TGI [42] was > 100 µM. The TGI [43] was > 100 µM, the TGI [44] was 82.9 µM and the TGI [45] was > 100 µM. For the same compound, the TGI [46] was > 100 µM, the TGI [47] was > 100 µM and the TGI [48] was > 100 µM. The TGI [49] was > 100 µM, the TGI [50] was > 100 µM and the TGI [51] was > 100 µM.
